Experimental data from patent publication US10111874B2, “Combination therapies for treatment of cancer” (Araxes Pharma LLC, priority 2014, dated 2018).
Further: test concentration or dose not given here.

Each compound was assayed against T1, KRAS G12C 1-169, his-tagged protein, GDP-loaded (Homo sapiens, UniProt P01116, G12C) (assay: Biochemical assay: covalent binding to KRAS G12C analyzed by mass spectrometry). Settings: compounds 1-47, measured at 24 h.
T1 construct: KRAS G12C 1-169, his-tagged protein, GDP-loaded
T1 sequence (P01116 1-169 isoform P01116-2 G12C): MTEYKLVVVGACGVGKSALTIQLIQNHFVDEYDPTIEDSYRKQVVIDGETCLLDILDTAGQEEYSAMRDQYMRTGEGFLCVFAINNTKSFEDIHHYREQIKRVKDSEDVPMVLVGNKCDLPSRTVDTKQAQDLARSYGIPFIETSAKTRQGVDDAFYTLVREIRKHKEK
With `C=CC(=O)N1CCN(c2ncnc3cc(Cl)c(-c4ccccc4C#N)cc23)CC1` [Compound I-8, 2-(4-(4-acryloylpiperazin-1-yl)-7-chloroquinoazlin-6-yl)benzonitrile] the Binding % was “++ (++indicates binding activity greater than 25% and up to 50%)”. `C=CC(=O)N1CCN(c2nc(OC)nc3cc(Cl)c(-c4ccc(Cl)cc4)cc23)CC1` [Compound I-43, 1-(4-(7-chloro-6-(4-chlorophenyl)-2-methoxyquinazolin-4-yl)piperazin-1-yl)prop-2-en-1-one] was tested, and the Binding % was “+++ (+++indicates binding activity greater than 50% and up to 75%)”.

Same assay, conditions: compounds 48-246, measured at 2 h
With `C=CC(=O)N1CCN(c2ncnc3cc(-c4c(O)cccc4F)c(Cl)cc23)CC1` [Compound I-138, 1-(4-(6-chloro-7-(2-fluoro-6-hydroxyphenyl)quinazolin-4-yl)piperazin-1-yl)prop-2-en-1-one] the Binding % was “++++ (++++indicates binding activity greater than 75%)”. In the case of `C=CC(=O)N1CCN(c2ncnc3cc(-c4ccc(O)cc4C(F)(F)F)c(Cl)cc23)CC1` [Compound I-169, 1-(4-(6-chloro-7-(4-hydroxy-2-(trifluoromethyl)phenyl)quinazolin-4-yl)piperazin-1-yl)prop-2-en-1-one], the Binding % is reported as “+++ (+++indicates binding activity greater than 50% and up to 75%)”. `C=CC(=O)N1CCN(c2ncnc3cc(-c4ccccc4CC(N)=O)c(Cl)cc23)CC1` [Compound I-161, 2-(2-(4-(4-acryloylpiperazin-1-yl)-6-chloroquinazolin-7-yl)phenyl)acetamide] was tested, and the Binding % was “++ (++indicates binding activity greater than 25% and up to 50%)”. In the case of `C=CC(=O)N1CCN(c2ncnc3cc(-c4cccc(CC)c4)c(Cl)cc23)CC1` [Compound I-79, 1-(4-(6-chloro-7-(3-ethylphenyl)quinazolin-4-yl)piperazin-1-yl)prop-2-en-1-one], the Binding % is reported as “+ (+indicates binding activity from 5% to 25%)”. With `C=CC(=O)N1CCN(c2ncnc3cc(Cl)c(-c4ccc(Cl)cc4)cc23)C[C@H]1CO` [Compound I-63, (S)-1-(4-(7-chloro-6-(4-chlorophenyl)quinazolin-4-yl)-2-(hydroxymethyl)piperazin-1-yl)prop-2-en-1-one] the Binding % was “+ (+indicates binding activity from 5% to 25%)”. In the case of `C=CC(=O)N1CCN(c2ncnc3cc(-c4ccccc4S(N)(=O)=O)c(Cl)cc23)CC1` [Compound I-213, 2-(4-(4-acryloylpiperaqzin-1-yl)-6-chloroquinazolin-7-yl)benzenesulfonamide], the Binding % is reported as “++ (++indicates binding activity greater than 25% and up to 50%)”. In the case of `C=CC(=O)N1CCN(c2ncnc3cc(-c4cc(F)ccc4C(N)=O)c(Cl)cc23)CC1` [Compound I-197, 2-(4-(4-acryloylpiperazin-1-yl)-6-chloroquinazolin-7-yl)-4-fluorobenzamide], the Binding % is reported as “++ (++indicates binding activity greater than 25% and up to 50%)”. `C=CC(=O)N1CCN(c2ncnc3cc(-c4ccc(Cl)cc4O)c(Cl)cc23)CC1` [Compound I-117, 1-(4-(6-chloro-7-(4-chloro-2-hydroxyphenyl)quinazolin-4-yl)piperazin-1-yl)prop-2-en-1-one] was tested, and the Binding % was “+++ (+++indicates binding activity greater than 50% and up to 75%)”. In the case of `C=CC(=O)N1CCN(c2ncnc3cc(-c4cccnc4)c(Cl)cc23)CC1` [Compound I-90, 1-(4-(6-chloro-7-(pyridin-3-yl)quinazolin-4-yl)piperazain-1-yl)prop-2-en-1-one], the Binding % is reported as “+ (+indicates binding activity from 5% to 25%)”. `C=CC(=O)N1CCN(c2ncnc3cc(-c4cccc(C#N)c4)c(Cl)cc23)CC1` [Compound I-130, 3-(4-(4-acryloylpiperazin-1-yl)-6-chloroquinazolin-7-yl)benzonitrile] was tested, and the Binding % was “+ (+indicates binding activity from 5% to 25%)”.

Same assay, conditions: compounds 247-342, measured at 30 min
In the case of `C=CC(=O)N1CCN(c2nc(OCCN3CCOCC3)nc3c(F)c(-c4c(C)ccc5[nH]ncc45)c(Cl)cc23)CC1` [Compound 342, 1-(4-(6-chloro-8-fluoro-7-(5-methyl-1H-indazol-4-yl)-2-(2-morpholinoethoxy)quinazolin-4-yl)piperazin-1-yl)prop-2-en-1-one], the Binding % is reported as “++++ (++++indicates binding activity greater than 75%)”. In the case of `C=CC(=O)N1CCN(c2nc(Nc3cnn(C)c3)nc3c(F)c(-c4c(C)ccc5[nH]ncc45)c(Cl)cc23)CC1` [Compound 322, 1-(4-(6-chloro-8-fluoro-7-(5-methyl-1H-indazol-4-yl)-2-(1-methyl-1H-pyrazol-4-ylamino)quinazolin-4-yl)piperazin-1-yl)prop-2-en-1-one], the Binding % is reported as “+++ (+++indicates binding activity greater than 50% and up to 75%)”. `C=CC(=O)N1CCN(c2ncnc3c(OC)c(-c4ccc(F)cc4F)c(Cl)cc23)CC1` [Compound 306, 1-(4-(6-chloro-7-(2,4-difluorophenyl)-8-methoxyquinazolin-4-yl)piperazin-1-yl)prop-2-en-1-one] was tested, and the Binding % was “++ (++indicates binding activity greater than 25% and up to 50%)”. For `C=CC(=O)N1CCN(c2cnnc3cc(-c4c(O)cccc4F)c(C(F)(F)F)cc23)CC1` [Compound I-279, 1-(4-(7-(2-fluoro-6-hydroxyphenyl)-6-(trifluoromethyl)cinnolin-4-yl)piperazin-1-yl)prop-2-en-1-one], the Binding % was “+++ (+++indicates binding activity greater than 50% and up to 75%)”. For `CN(C)C/C=C/C(=O)N1CCN(c2ncnc3c(F)c(-c4c(O)cccc4F)c(Cl)cc23)CC1` [Compound 301, (E)-1-(4-(6-chloro-8-fluoro-7-(2-fluoro-6-hydroxyphenyl)quinazolin-4-yl)piperazin-1-yl)-4-(dimethylamino)but-2-en-1-one], the Binding % was “++ (++indicates binding activity greater than 25% and up to 50%)”.

Same assay, conditions: determined at 2 hrs
`C=CC(=O)N1CC(N2CCN(C(=O)[C@@H](C)Nc3cc(C4CC4)c(Cl)cc3O)CC2)C1` [II-68, (R)-1-(3-(4-(2-(4-chloro-5-cyclopropyl-2-hydroxyphenylamino)-propanoyl)piperazin-1-yl)azetidin-1-yl)prop-2-en-1-one] was tested, and the Binding % was “++ (++indicates binding activity greater than 20%)”. `C=CC(=O)N1CC(N2CCN(c3cc(-c4cc(CC)c(Cl)cc4O)n[nH]3)CC2)C1` [II-72, 1-(3-(4-(3-(4-chloro-5-ethyl-2-hydroxyphenyl)-1H-pyrazol-5-yl)piperazin-1-yl)azetidin-1-yl)prop-2-en-1-one] was tested, and the Binding % was “+ (+indicates binding activity from 5% to 20%)”.

Same assay, conditions: determined at 24 hrs
`C=CC(=O)N1CCN(C2CN(C(=O)CNc3cc(Cl)c(Cl)cc3O)C2)CC1` [II-39, 1-(4-(1-(2-(4,5-dichloro-2-hydroxyphenyl-amino)acetyl)azetidin-3-yl)piperazin-1-yl)prop-2-en-1-one] was tested, and the Binding % was “+++ (+++indicates binding activity greater than 25% and up to 50%)”. In the case of `C=CC(=O)N1CC(N2CCN(C(=O)CNc3cc(Cl)c(Cl)cc3C(F)(F)F)CC2)C1` [II-26, 1-(3-(4-(2-(4,5-dichloro-2-(trifluoromethyl)-phenylamino)acetyl)-piperazin-1-yl)azetidin-1-yl)prop-2-en-1-one], the Binding % is reported as “+ (+indicates binding activity from 5% to 15%)”. In the case of `C=CC(=O)N1CC(N2CCN(C(=O)C(CC)Nc3cc(Cl)c(Cl)cc3O)CC2)C1` (stereo not shown) [II-49, 1-(4-(1-acryloylazetidin-3-yl)piperazin-1-yl)-2-(4,5-dichloro-2-hydroxyphenyl-amino)butan-1-one], the Binding % is reported as “++++ (++++indicates binding activity greater than 50%)”.
